The values below come from patent US20250268816A1, “EXTENDED-RELEASE FORMULATION CONTAINING CRESOL” (UNIVERSITY OF MARYLAND, BALTIMORE, priority 2022, published 2025).

For orientation: half-life means the time in which the quantity being followed falls by half.

The nature of data set [1]: Drug release study from the in situ gelling system (ISFGSs). In kind it is physicochemical. The method, then:
FIG. 29 is a graph showing the results of a dexamethasone release study using 6 wt % Dex and 24 wt % Polymer 80 μL.
FIGS. 30A and 30B are graphs showing the effect of polymer composition on the cumulative release of remdesivir from ISFGSs; 3 wt % 80 and 160 uL-24 wt %.
FIGS. 31A and 31B are graphs showing the effect of polymer composition on the cumulative release of GS-441524 from 80 μL of ISFGSs.
FIGS. 32A and 32B are graphs showing the effect of polymer composition on the cumulative release of GS-441524 from 160 μL of ISFGSs.
FIG. 33A and FIG. 33B are a set of graphs showing the effect of polymer composition and solution volume on the cumulative release of artemisinin from ISFGSs.
FIGS. 37A and 37B are graphs showing the cumulative release of gilteritinib from ISFGSs: Gilteritinib 4 wt % Release 80 μL PLGA 50/50 depots.

For data set [2] the following is noted: human patients; cited from earlier work.
The subject of data set [3] is feline infectious peritonitis (FIP). As to conditions: cited from earlier work.
A short description of data set [4]: In vitro cumulative release of insulin from ISFGSs. The class given is physicochemical. As to conditions: for time of continuous insulin release: from ISFGSs. From the text:
The effect of formulation volume in vitro was also studied.

The conditions of data set [5]: in vivo; cited from earlier work.
Data set [6] deals with diabetic rats. Description: Blood glucose level lowering after subcutaneous injection in diabetic rats. The class given is in vivo. The settings on record: subcutaneously injected insulin, 5 IU, within 4 h after the injection.
Text: The effect of subcutaneously injected insulin as the therapeutic agent component of the subject drug delivery system on diabetic rats was also studied. More specifically, the effect of an insulin depot prepared and delivered in accordance with the teachings of the subject invention on the cumulative release of insulin was studied.
The conditions of data set [7]: in mice; cited from earlier work.
A short description of data set [8]: ART838 release study from ISFGSs into PBS. The class given is physicochemical. The text has this: ISFGS turbidity increased with time and with ART838 loading content, and all loaded ISDs […]. The diffusion of the solvents from the depot in the first week was not sufficient for ART838 to diffuse out of the ISFGS due to the hydrophobic interactions between ART838 and PLGA/PLA polymers. The ISFGS system is able to continually release ART838 for 1 month and the ISD form can be tuned to control ART838 release profiles.
This delayed release profile might be beneficial to potentiate antitumor responses initiated by other drug agents. Therefore it is contemplated that the polymeric formulations of the ISFGS system can be altered to tune the ART838 release curve, aiming to modulate the initiation of release while maintaining the stable release observed here. In addition, the ISFGSs can be used with other dimeric ART analogs or other drug compounds, both for administration and for research purposes, for example to analyze cytotoxicity and bioeffects of the loaded ISFGSs using in vitro cell culture models.

Like-named read-outs stand apart in the source and are kept apart here.

Regarding `C[C@@H]1CC[C@H]2[C@@H](C)C(=O)O[C@@H]3O[C@@]4(C)CC[C@@H]1[C@]32OO4` [artemisinin], the “release from the in situ gelling system (in words)” value in data set [1] is listed as “sustained release”.
`N#C[C@@]1(c2ccc3c(N)ncnn23)O[C@H](CO)[C@@H](O)[C@H]1O` [GS-441524]: the half-life entry in data set [2] is on record as “around 24 hours”. Further, the “release from the in situ gelling system (in words)” value in data set [1] was “sustained release”. Further, the “activity against FIP in cell culture (in words)” value in data set [3] is given as “equivalent”.
Consider insulin, for which, in data set [4], the “time of continuous insulin release” value amounted to 7 days. Also, in data set [5], the half-life is 4 to 6 min. In data set [6], the blood glucose level entry is recorded as “about 100 mg·dL^−1”.
On to `C[C@@H]1CCC2[C@@H](C)[C@@H](CC(COP(=O)(Oc3ccccc3)Oc3ccccc3)C[C@H]3O[C@@H]4O[C@@]5(C)CCC6[C@H](C)CCC([C@H]3C)[C@]64OO5)O[C@@H]3O[C@@]4(C)CCC1[C@@]23OO4` (stereo partly drawn) [ART838], for which the half-life in data set [7] was 191 min. The “time of continual ART838 release from the ISFGS system” value in data set [8] is reported as 1 month.
As for `CCC(CC)COC(=O)[C@H](C)N[P@](=O)(OC[C@H]1O[C@@](C#N)(c2ccc3c(N)ncnn23)[C@H](O)[C@@H]1O)Oc1ccccc1` [Remdesivir], in data set [5], the half-life is 53.4 min.
Turning to Degludec, the “relative insulin release rate (in words)” value in data set [4] (comparison between ISFGS formulations) is “slower”. In addition, the “time of continuous insulin release” value in data set [4] was found to be 7 days.
